Key:
[1] = target: T1, GST-tagged Tankyrase-1 (1023-1327 aa) (Homo sapiens, UniProt O95271); test: Tankyrase 1 autoparsylation assay (HTRF); type: biochemical; settings: read-out: IC50 TNKS1 enzyme assay
T1 construct: GST-tagged Tankyrase-1 (1023-1327 aa)
Protocol: (§1) Biochemical activity testing of Tankyrase 1 and 2: Autoparsylation assay
(§2) The autoparsylation assay is run in two steps: the enzymatic reaction in which GST-tagged Tankyrase-1, resp Tankyrase-2 transferred biotinylated ADP-ribose to itself from biotinylated NAD as co-substrate and the detection reaction where a time resolved FRET between cryptate labelled anti-GST bound to the GST tag of the enzyme and Xlent® labelled-streptavidin bound the biotin-parsylation residue is analysed. The autoparsylation activity was detectable directly via the increase in HTRF signal.
(§3) The autoparsylation assay is performed as 384-well HTRF® (Cisbio, Codolet, France) assay format in Greiner low volume nb 384-well microtiter plates and is used for high throughput screen. 250 nM GST-tagged Tankyrase-1 (1023-1327 aa), respectively about 250 nM GST-tagged Tankyrase-2 (873-1166 aa) and 5 μM bio-NAD (Biolog, Life science Inst., Bremen, Germany) as co-substrate are incubated in a total volume of 5 μl (50 mM HEPES, 4 mM Mg-chloride, 0.05% Pluronic F-68, 1.4 mM DTT, 0.5% DMSO, pH 7.7) in the absence or presence of the test compound (10 dilution concentrations) for 90 min at 30° C. The reaction is stopped by the addition of 1 μl 50 mM EDTA solution. 2 μl of the detection solution (1.6 μM SA-Xlent® (Cisbio, Codolet, France), 7.4 nM Anti-GST-K® (Eu-labelled anti-GST, Cisbio, Codolet, France) in 50 mM HEPES, 800 mM KF, 0.1% BSA, 20 mM EDTA, 0.1% CHAPS, pH 7.0) are added. After 1 h incubation at room temperature the HTRF is measured with an Envision multimode reader (Perkin Elmer LAS Germany GmbH) at excitation wavelength 340 nm (laser mode) and emission wavelengths 615 nm and 665 nm. The ratio of the emission signals is determined. The full value used is the inhibitor-free reaction. The pharmacological zero value used is XAV-939 (Tocris) in a final concentration of 5 μM. The inhibitory values (IC50) are determined using either the program Symyx Assay Explorer® or Condosseo® from GeneData.

[2] = target: T2, GST-tagged Tankyrase-2 (873-1166 aa) (Homo sapiens, UniProt Q9H2K2); test: Tankyrase 2 autoparsylation assay (HTRF); type: biochemical; settings: read-out: IC50 TNKS2 enzyme assay
T2 construct: GST-tagged Tankyrase-2 (873-1166 aa)
Protocol: as §1, §2, §3

[3] = target: T3, GST-tagged Tnks-1 (1023-1327 aa) (Homo sapiens, UniProt O95271); test: TNKS1 activity ELISA (autoparsylation assay); type: biochemical
T3 construct: GST-tagged Tnks-1 (1023-1327 aa, prepared in-house); made in house
Protocol: (§4) Description of the TNKS1 and TNKS2 ELISA Assay
(§5) Biochemical Activity Testing of TNKS 1 and 2: Activity ELISA (Autoparsylation Assay)
(§6) For analysis of autoparsylation activity of TNKS 1 and 2 an activity ELISA is performed: In the first step GST tagged TNKS is captured on a Glutathione coated plate. Then the activity assay with biotinylated NAD is performed in the absence/presence of the compounds. During the enzymatic reaction GST tagged TNKS transfers biotinylated ADP-ribose to itself from biotinylated NAD as co-substrate. For the detection streptavidin-HRP conjugate is added that binds to the biotinylated TNKS and is thereby captured to the plates. The amount of biotinylated resp. autoparsylated TNKS is detected with a luminescence substrate for HRP. The level of the luminescence signal correlates directly with the amount of autoparsylated TNKS and therefore with activity of TNKS.
(§7) The activity ELISA is performed in 384 well Glutathione coated microtiter plates (Express capture Glutathione coated plate, Biocat, Heidelberg, Germany). The plates are pre-equilibrated with PBS. Then the plates are incubated with 50 μl 20 ng/well GST-tagged Tnks-1 (1023-1327 aa, prepared in-house), respectively GST-tagged Tnks-2 (873-1166 aa, prepared in-house) in assay buffer (50 mM HEPES, 4 mM Mg-chloride, 0.05% Pluronic F-68, 2 mM DTT, pH 7.7) overnight at 4° C. The plates are washed 3 times with PBS-Tween-20. The wells are blocked by incubation at room temperature for 20 minutes with 50 μl blocking buffer (PBS, 0.05% Tween-20, 0.5% BSA). Afterwards the plates are washed 3 times with PBS-Tween-20. The enzymatic reaction is performed in 50 μl reaction solution (50 mM HEPES, 4 mM Mg-chloride, 0.05% Pluronic F-68, 1.4 mM DTT, 0.5% DMSO, pH 7.7) with 10 μM bio-NAD (Biolog, Life science Inst., Bremen, Germany) as co-substrate in the absence or presence of the test compound (10 dilution concentrations) for 1 hour at 30° C. The reaction is stopped by 3 times washing with PBS-Tween-20. For the detection 50 μl of 20 ng/μl Streptavidin, HRP conjugate (MoBiTec, Göttingen, Germany) in PBS/0.05% Tween-20/0.01% BSA are added and the plates are incubated for 30 minutes at room temperature. After three times washing with PBS-Tween-20 50 μl of SuperSignal ELISA Femto Maximum sensitivity substrate solution (ThermoFisherScientific (Pierce), Bonn, Germany) are added. Following a 1 minute incubation at room temperature luminescence signals are measured with an Envision multimode reader (Perkin Elmer LAS Germany GmbH) at 700 nm. The full value used is the inhibitor-free reaction. The pharmacological zero value used is XAV-939 (Tocris) in a final concentration of 5 μM. The inhibitory values (IC50) are determined using either the program Symyx Assay Explorer® or Condosseo® from GeneData.

[4] = target: T4, GST-tagged Tnks-2 (873-1166 aa) (Homo sapiens, UniProt Q9H2K2); test: TNKS2 activity ELISA (autoparsylation assay); type: biochemical
T4 construct: GST-tagged Tnks-2 (873-1166 aa, prepared in-house); made in house
Protocol: as §4, §5, §6, §7

[5] = target: T5, His-tagged Parp-1 (Homo sapiens, UniProt P09874); test: PARP-1 autoparsylation assay (HTRF); type: biochemical; settings: PARP-1 autoparsylation HTRF
T5 construct: purchased Enzo Life Sciences GmbH, Lörrach, Germany
From the text: Description of the PARP1 Assay
Biochemical Activity Testing of PARP-1: Autoparsylation Assay
as §2, with “His-tagged Parp-1 transfers” for “GST-tagged Tankyrase-1, resp Tankyrase-2 transferred”, “ADP-ribose/ADP-ribose” for “ADP-ribose”, “NAD/NAD” for “NAD”, “anti-His antibody” for “anti-GST”, “His” for “GST”, “is” for “was”
The autoparsylation assay is performed as 384-well HTRF® (Cisbio, Codolet, France) assay format in Greiner low volume nb 384-well microtiter plates. 35 nM His-tagged Parp-1 (human, recombinant, Enzo Life Sciences GmbH, Lörrach, Germany) and a mixture of 125 nM bio-NAD (Biolog, Life science Inst., Bremen, Germany) and 800 nM NAD as co-substrate are incubated in a total volume of 6 μl (100 mM Tris/HCl, 4 mM Mg-chloride, 0.01% IGEPAL® CA630, 1 mM DTT, 0.5% DMSO, pH 8, 13 ng/μl activated DNA (BPS Bioscience, San Diego, US)) in the absence or presence of the test compound (10 dilution concentrations) for 150 min at 23° C. The reaction is stopped by the addition of 4 μl of the Stop/detection solution (70 nM SA-Xlent® (Cisbio, Codolet, France), 2.5 nM Anti-His-K® (Eu-labelled anti-His, Cisbio, Codolet, France) in 50 mM HEPES, 400 mM KF, 0.1% BSA, 20 mM EDTA, pH 7.0). After 1 h incubation at room temperature the HTRF is measured with an Envision multimode reader (Perkin Elmer LAS Germany GmbH) at excitation wavelength 340 nm (laser mode) and emission wavelengths 615 nm and 665 nm. The ratio of the emission signals is determined. The full value used is the inhibitor-free reaction. The pharmacological zero value used is Olaparib (LClabs, Woburn, US) in a final concentration of 1 μM. The inhibitory values (IC50) are determined using either the program Symyx Assay Explorer® or Condosseo® from GeneData.

[6] = test system: Tankyrases; test: Cellular inhibition of Tankyrase, Axin2 level in DLD1 cells (Luminex); type: cell-based; settings: Axin2 increase, 24 hours, read-out: EC50 [M] TNKS cellular assay
Protocol: Measurement of Cellular Inhibition of Tankyrase
Since Tankyrases have been described to modulate cellular level of Axin2 (Huang et al., 2009; Nature) the increase of Axin2 level is used as read-out for determination of cellular inhibition of Tankyrases in a Luminex based assay.
Cells of the colon carcinoma cell line DLD1 are plated in 96 well plates with 1.5×10^4 cells per well. Next day, cells are treated with a serial dilution of test compound in seven steps as triplicates with a final DMSO concentration of 0.3%. After 24 hours, cells are lysed in lysis buffer (20 mM Tris/HCl pH 8.0, 150 mM NaCl, 1% NP40, 10% Glycerol) and lysates are cleared by centrifugation through a 96 well filter plate (0.65 μm). Axin2 protein is isolated from cell lysates by incubation with a monoclonal anti-Axin2 antibody (R&D Systems #MAB6078) that is bound to fluorescent carboxybeads. Then, bound Axin2 is specifically detected with a polyclonal anti-Axin2 antibody (Cell Signaling #2151) and an appropriate PE-fluorescent secondary antibody. The amount of isolated Axin2 protein is determined in a Luminex^200 machine (Luminex Corporation) according to the manufacturer's instruction by counting 100 events per well. Inhibition of Tankyrase by test compounds results in higher levels of Axin2 which directly correlates with an increase of detectable fluorescence. As controls cells are treated with solvent alone (neutral control) and with a Tankyrase reference inhibitor IWR-2 (3E-06 M) which refers as control for maximum increase of Axin2. For analysis, the obtained data are normalized against the untreated solvent control and fitted for determination of the EC50 values using the Assay Explorer software (Accelrys).

[7] = test system: DLD-1-cancer cells; settings: Huang et al., 2009; cited from earlier work
[8] = test system: β-catenin; settings: Huang et al., 2009; cited from earlier work

T4 sequence (Q9H2K2 873-1166): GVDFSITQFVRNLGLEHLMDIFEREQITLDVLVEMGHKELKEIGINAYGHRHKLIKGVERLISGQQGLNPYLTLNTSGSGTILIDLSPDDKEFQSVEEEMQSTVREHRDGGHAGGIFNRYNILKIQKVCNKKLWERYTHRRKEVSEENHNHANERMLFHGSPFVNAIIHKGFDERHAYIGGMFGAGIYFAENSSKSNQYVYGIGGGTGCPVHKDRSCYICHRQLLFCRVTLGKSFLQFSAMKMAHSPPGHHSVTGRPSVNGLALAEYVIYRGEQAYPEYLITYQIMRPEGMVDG
T2 sequence (Q9H2K2 873-1166): as above
T5 sequence (P09874 whole entry): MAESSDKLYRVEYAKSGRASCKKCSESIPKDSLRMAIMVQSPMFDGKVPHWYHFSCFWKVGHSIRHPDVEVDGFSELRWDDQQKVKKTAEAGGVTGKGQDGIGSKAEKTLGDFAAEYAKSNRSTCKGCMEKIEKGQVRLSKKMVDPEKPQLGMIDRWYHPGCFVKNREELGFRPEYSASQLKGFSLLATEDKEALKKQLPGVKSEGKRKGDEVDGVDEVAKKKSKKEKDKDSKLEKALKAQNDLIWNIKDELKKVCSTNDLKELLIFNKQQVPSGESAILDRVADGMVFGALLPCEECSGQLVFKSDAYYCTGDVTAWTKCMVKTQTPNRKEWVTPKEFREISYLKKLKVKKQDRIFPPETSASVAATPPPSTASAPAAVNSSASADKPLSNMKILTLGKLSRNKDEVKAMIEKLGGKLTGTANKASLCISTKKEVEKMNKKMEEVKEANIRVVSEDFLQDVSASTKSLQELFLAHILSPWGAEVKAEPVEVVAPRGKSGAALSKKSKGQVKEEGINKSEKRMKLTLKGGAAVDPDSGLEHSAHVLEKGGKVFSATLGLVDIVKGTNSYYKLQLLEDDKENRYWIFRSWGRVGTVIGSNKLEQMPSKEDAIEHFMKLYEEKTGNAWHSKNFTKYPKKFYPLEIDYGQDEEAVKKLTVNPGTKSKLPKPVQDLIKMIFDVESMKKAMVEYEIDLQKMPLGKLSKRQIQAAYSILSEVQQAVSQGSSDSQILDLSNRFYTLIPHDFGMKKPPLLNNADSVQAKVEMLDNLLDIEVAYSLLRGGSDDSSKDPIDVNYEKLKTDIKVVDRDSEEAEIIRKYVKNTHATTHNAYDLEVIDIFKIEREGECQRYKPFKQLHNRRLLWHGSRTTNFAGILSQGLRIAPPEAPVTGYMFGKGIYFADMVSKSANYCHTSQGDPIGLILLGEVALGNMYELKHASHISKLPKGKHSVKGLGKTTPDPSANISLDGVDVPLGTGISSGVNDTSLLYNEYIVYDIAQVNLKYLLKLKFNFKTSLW
T3 sequence (O95271 1023-1327): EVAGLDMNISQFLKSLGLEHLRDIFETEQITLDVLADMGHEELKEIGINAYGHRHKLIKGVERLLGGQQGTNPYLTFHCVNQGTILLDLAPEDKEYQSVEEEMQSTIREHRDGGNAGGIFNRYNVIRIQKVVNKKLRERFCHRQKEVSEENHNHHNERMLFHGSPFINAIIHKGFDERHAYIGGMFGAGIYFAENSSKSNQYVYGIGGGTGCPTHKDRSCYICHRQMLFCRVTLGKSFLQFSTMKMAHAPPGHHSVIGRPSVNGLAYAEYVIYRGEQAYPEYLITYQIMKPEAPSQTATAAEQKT
T1 sequence (O95271 1023-1327): as above

Row | SMILES | IC50 [1] | IC50 [2] | IC50 [3] | IC50 [4] | IC50 [5] | EC50 [6] | growth of DLD-1-cancer cells [7] | Wnt-stimulated accumulation of β-catenin [8]
1 | Cc1ccc(-c2cn3cncc3c(=O)[nH]2)cc1 [Compound A1, 6-p-tolyl-7H-imidazo[1,5-a]pyrazin-8-one] | 300 to 3000 nM | 300 to 3000 nM | 300 to 3000 nM | 300 to 3000 nM | 3 to 50 µM |  |  | 
2 | O=c1[nH]c(-c2ccc(C(F)(F)F)cc2)cn2cncc12 [Compound A3, 6-(4-Trifluoromethyl-phenyl)-7H-imidazo[1,5-a]pyrazin-8-one] | 300 to 3000 nM | 300 to 3000 nM | < 300 nM | < 300 nM |  |  |  | 
3 | Cn1cc(-c2ccc(-c3cn4cncc4c(=O)[nH]3)cc2)cn1 [Compound A4, 6-[4-(1-methyl-1H-pyrazol-4-yl)-phenyl]-7H-imidazo[1,5-a]pyrazin-8-one] | 300 to 3000 nM | 300 to 3000 nM | < 300 nM | < 300 nM |  |  |  | 
4 | O=c1[nH]c(-c2ccc(CO)cc2)cn2cncc12 [Compound A5, 6-(4-hydroxymethyl-phenyl)-7H-imidazo[1,5-a]pyrazin-8-one] | 300 to 3000 nM | 300 to 3000 nM | < 300 nM | < 300 nM |  |  |  | 
5 | Oc1nc(-c2ccc(C(F)(F)F)cc2)nc2c1CSCC2 [XAV939] |  |  |  |  |  |  | inhibits growth | blocked

The next lines start with results.

Row | IC50 [1] | IC50 [2] | IC50 [3] | IC50 [4] | IC50 [5] | EC50 [6] | SMILES | growth of DLD-1-cancer cells [7] | Wnt-stimulated accumulation of β-catenin [8]
6 | < 300 nM | 300 to 3000 nM | < 300 nM | < 300 nM | 3 to 50 µM | 3e-07 to 3e-06 M | CC(C)(C)c1ccc(-c2cn3cncc3c(=O)[nH]2)cc1 [Compound A2, 6-(4-tert-Butyl-phenyl)-7H-imidazo[1,5-a]pyrazin-8-one] |  | 
7 | 300 to 3000 nM | 300 to 3000 nM | < 300 nM | < 300 nM | 3 to 50 µM |  | CC(C)(O)c1ccc(-c2cn3cncc3c(=O)[nH]2)cc1 [Compound A6, 6-[4-(1-hydroxy-1-methyl-ethyl)-phenyl]-7H-imidazo[1,5-a]pyrazin-8-one] |  | 
8 | 300 to 3000 nM | 300 to 3000 nM | < 300 nM | < 300 nM |  | < 3e-07 M | Cc1ncc2c(=O)[nH]c(-c3ccc(C(C)(C)C)cc3)cn12 [Compound A7, 6-(4-tert-butyl-phenyl)-3-methyl-7H-imidazo[1,5-a]pyrazin-8-one] |  | 
9 |  |  |  |  |  | 3e-07 to 3e-06 M | Cc1ncc2c(=O)[nH]c(-c3ccc(C(C)(C)O)cc3)cn12 [Compound A8, 6-[4-(1-hydroxy-1-methyl-ethyl)-phenyl]-3-methyl-7H-imidazo[1,5-a]pyrazin-one] |  | 

— patent US9718826B2, “Imidazopyrazinone derivatives” (Merck Patent GmbH, priority 2013, dated 2017)
